Results taken from patent US20100105610A1, “Methods of Inhibiting Tumor Cell Aggressiveness Using the Microenvironment of Human Embryonic Stem Cells” (CHILDREN'S MEMORIAL HOSPITAL, priority 2006, published 2010).

What was measured:
[1] = test system: MDA-MB-231 breast carcinoma cells; assay: In vivo tumor cell proliferation-to-apoptosis ratio (Ki67 / TUNEL), MDA-MB-231 tumors; conditions: MDA-MB-231 cells treated prior to injection into mouse
Description: (§1) (A) In vivo tumor formation in a mouse injected with MDA-MB-231 cells pre-exposed for 3 days to either a control matrix (Matrigel) or a matrix conditioned by hESCs (H9 CMTX) (n=10) (B) C81-61 cells, transfected with either an empty vector or a Nodal expression construct (n=5), and (C) MDA-MB-231 cells treated with either MO^Control or MO^Nodal (n=10). […] (D) The ratio of tumor cell proliferation to apoptosis for C8161 and MDA-MB-231 derived tumors, determined by immunohistochemical staining for Ki67 and terminal deoxynucleotidyl transferase biotin-dUTP nick-end labeling (TUNEL). Prior to injection into a mouse, C8161 and MDA-MB-231 cells were cultured for 3 days on control or hESC conditioned (H9 CMTX) matrices, or treated with MO^Nodal to knock down Nodal expression. […] (E) Immunohistochemical analysis of Ki67 expression (red/brown) and TUNEL staining in orthotopic melanoma (C8161) and breast carcinoma (MDA-MB-231) tumors. […] Proliferation is indicated by Ki67 staining and apoptotic nuclei were detected with confocal microscopy as red staining localized to the nuclei of apoptotic C8161 or MDA-MB-231 cells. […]
(§2) In order to establish a mechanism by which exposure to the hESC microenvironment abrogates tumorigenicity, the effects of this treatment on the in vivo tumor cell proliferation-to-apoptosis ratio were analyzed. […]

C8161 melanoma cells = assay: In vivo tumor cell proliferation-to-apoptosis ratio (Ki67 / TUNEL), C8161 tumors; conditions: C8161 cells treated prior to injection into mouse
Description: as §1, §2

[2] = test system: C8161 human cutaneous melanoma cells; assay: In vivo tumor formation, C8161 cells injected subcutaneously into nude mice; parameters: species or system mouse; conditions: 250,000 Morpholino-treated C8161 cells injected, vs control
Description: A microenvironment of human embryonic stem cells (H9 CMTX) was prepared as described above. C8161 human cutaneous melanoma cells were exposed to the H9 CMTX or Matrigel for 3 to 4 days prior to transplantation in a mouse model. Nude immunocompromised mice received an injection of the C8161 cells subcutaneously into the midscapular region (to mimic spontaneous metastatic dissemination found in human cancers). The animals were injected using a 25 or 27-gauge needle with 2.5×10^5 tumor cells/mouse in 0.05 ml RPMI media.
As a corollary to these findings, an orthotopic mouse model was used to examine the effect of Nodal inhibition on melanoma tumor formation. For the experimental tumourigenesis model, 5 week old nude mice (Harlan, Madison, Wis.) were injected subcutaneously with 250,000 C8161 cells, treated with control or anti-Nodal Morpholinos, in 50 μL of complete RPMI. Tumor measurements were taken on days 3, 7, 14 and 17 post-injection, and mice were sacrificed on day 17. For the orthotopic mouse tumor formation studies, statistical significance was determined using the Kruskal-Wallis One Way Analysis of Variance on Ranks, followed by Dunn's method. […]

With “MO^Nodal: antisense Morpholino to Nodal, 5′-AAGCAGCACCTCCAGCCCTTATATC-3′ (SEQ ID NO: 20) (all phosphorodiamidate morpholino (PMO); further chemistry not fully specified)” the “ratio of proliferation to apoptosis” value [1] was “decreased”, the “ratio of proliferation to apoptosis” value (C8161 melanoma cells) was “decreased” and the “diminution of tumor incidence” value [2] was 30%. The tumorigenicity [2] was “significant reduction”.
